Tested on: Amaranthus tuberculatus (AMATU, tall waterhemp), PPO resistant biotype 2 containing the ΔG210 mutation (w.3)
Format: in vivo
Settings: azafenidin: in comparison to sensitive biotypes

Structure (SMILES) | activity on / control of resistant weeds containing the ΔG210 mutation (w.3), in words
CCc1ccc(COc2ccc(-n3c(=O)cc(C(F)(F)F)n(C)c3=O)cc2)c(OC(C)C(=O)OC)c1 (centres unmarked) [(I).1, benzfendizone] | very good activity
C#CCOc1cc(-n2nc3n(c2=O)CCCC3)c(Cl)cc1Cl [azafenidin, reference compound] | much weaker control

From patent publication US20210352900A1, “Method for Controlling PPO Resistant Weeds” (BASF SE, priority 2016, published 2021)
